# According to patent publication US8202872B2, “Pyrazole derivatives as sigma receptor inhibitors” (Laboratorios del Dr. Esteve, S.A., priority 2006, dated 2012):
# Counter-ions that a name gives are not always drawn.
# Tests used:
# σ1-receptor = molecular target: T1, σ1-receptor (Cavia porcellus, UniProt Q60492); assay: Sigma-1 receptor binding assay, [3H](+)-pentazocine, brain membranes; details: guinea pig brain membranes; for % Binding σ1 10^−7M: compound at 10^−7 M; for % Binding σ1 10^−7M / % Binding σ1 10^−8M: [3H](+)-pentazocine 0.5 nM; for % Binding σ1 10^−8M: compound at 10^−8 M; for Ki: Sigma-1 receptor, [3H](+)-pentazocine
# T1 construct: guinea pig brains were homogenized; from tissue; host or cells: guinea pig brain membranes
# T1 sequence (Q60492 whole entry): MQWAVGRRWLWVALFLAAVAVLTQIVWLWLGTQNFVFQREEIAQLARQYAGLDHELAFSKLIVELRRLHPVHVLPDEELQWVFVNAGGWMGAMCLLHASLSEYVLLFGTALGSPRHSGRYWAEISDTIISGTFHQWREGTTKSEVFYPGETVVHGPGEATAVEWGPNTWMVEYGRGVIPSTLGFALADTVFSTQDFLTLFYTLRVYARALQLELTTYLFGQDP
# Description: Brain membrane preparation and binding assays for the σ1-receptor were performed as described (DeHaven-Hudkins et al., 1992) with some modifications. In brief, guinea pig brains were homogenized in 10 vols. (w/v) of Tris-HCl 50 mM 0.32 M sucrose, pH 7.4, with a Kinematica Polytron PT 3000 at 15000 r.p.m. for 30 s. The homogenate was centrifuged at 1000 g for 10 min at 4° C. and the supernatants collected and centrifuged again at 48000 g for 15 min at 4° C. The pellet was resuspended in 10 volumes of Tris-HCl buffer (50 mM, pH 7.4), incubated at 37° C. for 30 min, and centrifuged at 48000 g for 20 min at 4° C. Following this, the pellet was resuspended in fresh Tris-HCl buffer (50 mM, pH 7.4) and stored on ice until use.
# Each assay tube contained 10 μL of [^3H](+)-pentazocine (final concentration of 0.5 nM), 900 μL of the tissue suspension to a final assay volume of 1 mL and a final tissue concentration of approximately 30 mg tissue net weight/mL. Non-specific binding was defined by addition of a final concentration of 1 μM haloperidol. All tubes were incubated at 37° C. for 150 min before termination of the reaction by rapid filtration over Schleicher & Schuell GF 3362 glass fibre filters [previously soaked in a solution of 0.5% polyethylenimine for at least 1 h]. Filters were then washed with four times with 4 mL of cold Tris-HCl buffer (50 mM, pH 7.4). Following addition of scintillation cocktail, the samples were allowed to equilibrate overnight. The amount of bound radioactivity was determined by liquid scintillation spectrometry using a Wallac Winspectral 1414 liquid scintillation counter. Protein concentrations were determined by the method of Lowry et al. (1951).
# [1] = system: capsaicin-induced allodynia; assay: Von Frey filaments in a model of capsaicin-induced allodynia; assay type: in vivo; design: dose or concentration left out as unconfirmed; details: mice; capsaicin injected into paw; mechanical stimulus (von Frey)
# Description: In-Vivo-Experiments Using Von Frey Filaments in a Model of Capsaicine—Induced Allodynia:
# This model is described in detail in the experimental part of WO 2006/010587 A1, examples 1 and 2, the description being included here by reference. Capsaicin is thereby injected into experimental animals to produce acute pain followed by allodynia.
# Briefly after habituation mice were first treated with the test-compound (or not in controls). Then capsaicin (1% DMSO) is injected into their paw resulting in developing pain in the effected paw. The effected paw is then treated with a mechanical stimulus and the latency time before the paw is withdrawn is measured.
melting point [°C],Ki (σ1-receptor) [nM],Compound,also measured
180 to 184,,"CC(=O)N1CCN(CCOc2nn(-c3ccc(Cl)c(Cl)c3)c(C)c2C)CC1.O=C(O)C(=O)O (hydrate or solvate) [Example 12, 1-(4-(2-(1-(3,4-Dichlo-rophenyl)-4,5-dimethyl-1H-pyrazol-3-yloxy)ethyl)piperazin-1-yl)ethanone oxalate]",
158 to 165,8.3,"CC(=O)C1CCN(CCOc2cc(C)n(-c3ccc(Cl)c(Cl)c3)n2)CC1.O=C(O)C(=O)O [Example 9, 1-(1-(2-(1-(3,4-Dichlo-rophenyl)-5-methyl-1H-pyrazol-3-yloxy)ethyl)piperidin-4-yl)ethanone oxalate]",
186 to 188,,"CC(=O)N1CCN(CCCCOc2nn(-c3ccc(Cl)c(Cl)c3)c(C)c2C)CC1.O=C(O)C(=O)O [Example 10, 1-(4-(4-(1-(3,4-Dichlo-rophenyl)-4,5-dimethyl-1H-pyrazol-3-yloxy)butyl)piperazin-1-yl)ethanone oxalate]",
156 to 158,,"CC(=O)N1CCN(CCOc2ccn(-c3ccc(Cl)cc3Cl)n2)CC1.O=C(O)C(=O)O [Example 11, 1-(4-(2-(1-(2,4-Dichlo-rophenyl)-1H-pyrazol-3-yloxy)ethyl)piperazin-1-yl)ethanone oxalate]",
147 to 150,,"CC(=O)N1CCN(CCCCOc2cc(C)n(-c3ccc(Cl)c(Cl)c3)n2)CC1 [Example 13, 1-(4-{4-[1-(3,4-Dichloro-phenyl)-5-methyl-1H-pyrazol-3-yloxy]-butyl}-piperazin-1-yl)-ethanone]",

# Further lines, the compound ahead of its results:
Compound,melting point [°C],Ki (σ1-receptor) [nM],also measured
"CC(=O)C1CCN(CCOc2ccn(-c3ccc(Cl)cc3Cl)n2)CC1.O=C(O)C(=O)O (hydrate or solvate) [Example 7, 1-(1-[2-{1-(2.4-Dichlo-rophenyl)-1H-pyrazol-3-yloxy}ethyl]piperi-din-4-yl)ethanone oxalate]",137 to 140,,
"Cc1cc(OCCN2CCC(n3cnc4cccnc43)CC2)nn1-c1ccc(Cl)c(Cl)c1 [Example 1, 3-{1-[2-(1-(3,4-Dichlorophenyl)-5-methyl-1H-pyrazol-3-yloxy)ethyl]piperidin-4-yl}-3H-imidazo[4,5-b]pyridine]",104 to 107,,% Binding σ1 10^−7M (σ1-receptor): 94.4%; % Binding σ1 10^−8M (σ1-receptor): 49.4%
"Cc1cc(OCCN2CCC(N)C2)nn1-c1ccc(Cl)c(Cl)c1 (stereo not drawn) [Example 2, 1-{2-[1-(3,4-Dichlorophenyl)-5-methyl-1H-pyrazol-3-yloxy]ethyl}pyrrolidin-3-amine]",,,% Binding σ1 10^−7M (σ1-receptor): 90.7%; % Binding σ1 10^−8M (σ1-receptor): 53.2%
"CCOC(=O)N1CCN(CCOc2cc(C)n(-c3ccc(Cl)c(Cl)c3)n2)CC1 [Example 3, Ethyl 4-{2-[1-(3,4-dichlorophenyl)-5-methyl-1H-pyrazol-3-yloxy]ethyl}piperazine carboxylate]",,,% Binding σ1 10^−7M (σ1-receptor): 99.5%; % Binding σ1 10^−8M (σ1-receptor): 58.4%
"CC(=O)N1CCN(CCOc2cc(C)n(-c3ccc(Cl)c(Cl)c3)n2)CC1 [Example 4, 1-(4-(2-(1-(3,4-dichlorophenyl)-5-methyl-1H-pyrazol-3-yloxy)ethyl)piperazin-1-yl)ethanone]",,,% Binding σ1 10^−7M (σ1-receptor): 99.4%; % Binding σ1 10^−8M (σ1-receptor): 82.5%
"CC(=O)C1CCN(CCOc2ccn(-c3ccc(Cl)c(Cl)c3)n2)CC1.O=C(O)C(=O)O [Example 5, 1-{1-[2-(1-(3,4-Dichlorophenyl)-1H-pyrazol-3-yloxy)ethyl]piperidin-4-yl}ethanone oxalate]",98 to 100,1.3 ± 0.4,
"CC(=O)N1CCN(CCOc2ccn(-c3ccc(Cl)c(Cl)c3)n2)CC1.O=C(O)C(=O)O [Example 6, 1-{4-[2-(1-(3,4-Dichlo-rophenyl)-1H-pyrazol-3-yloxy)ethyl]pipera-zin-1-yl}ethanone oxalate]",206 to 210,4.2,analgesia [1]: 77%
"CC(=O)C1CCN(CCOc2ccn(-c3ccc(Cl)cc3Cl)n2)CC1 [Example 7, 1-(1-[2-{1-(2.4-Dichlo-rophenyl)-1H-pyrazol-3-yloxy}ethyl]piperi-din-4-yl)ethanone oxalate]",,1.5,
"CC(=O)C1CCN(CCOc2ccn(-c3ccc(Cl)cc3)n2)CC1.O=C(O)C(=O)O [Example 8, 1-(1-(2-(1-(4-Chloro-phenyl)-1H-pyrazol-3-yloxy)ethyl)piperidin-4-yl)ethanone oxalate]",150 to 153,1.3,
